Measurements published in patent US4639459A, “Use of trifluoromethyl compounds” (priority 1985, dated 1987).

Assays:
[1] = human, in vivo; cited from earlier work
[2] = Pharmacokinetic studies comparing relative distribution in brain and plasma; settings: rodents

| SMILES | sedation and drowsiness [1] | penetration of the brain [2] |
| --- | --- | --- |
| Cc1ccc(/C(=C\CN2CCCC2)c2ccccn2)cc1 [Triprolidine, (E)-1-(4-methylphenyl)-1-(2-pyridyl)-3-pyrrolidinoprop-1-ene] | produces sedation and drowsiness in varying degrees in most patients | – |
| O=C(O)/C=C/c1cccc(/C(=C/CN2CCCC2)c2ccc(C(F)(F)F)cc2)n1 [Compound of Formula (I), (E)-3-{6-[3-Pyrrolidino-1(4-Trifluoromethylphenyl)prop-1E-enyl]-2-pyridyl}acrylic acid] | – | does not readily penetrate the brains of rodents |
